≈ marks a conversion by molar mass, not a printed value. Calls of active or inactive are those of the source. The rule behind the calls is not given here.
What was measured:
Escherichia coli [1] = assay: Decrease in susceptibility of qnrS-positive transconjugant streptomycin-resistant Escherichia coli C600; type: functional
Enterobacter cloacae [2] = assay: Susceptibility of qnr positive Enterobacter cloacae; type: functional
Enterobacter cloacae [3] = assay: Susceptibility of qnr positive Enterobacter cloacae assessed as percentage nonsusceptible isolates; type: functional
Escherichia coli [4] = assay: Decrease in susceptibility of qnrB-positive transconjugant streptomycin-resistant Escherichia coli C600; type: functional
Enterobacter cloacae [5] = assay: Susceptibility of qnr positive Enterobacter cloacae producing IMP8 and/or SHV12 assessed as percentage nonsusceptible isolates
Enterobacter cloacae [6] = assay: Susceptibility of metallo beta lactamase and extended spectrum beta lactamase deficient qnr positive Enterobacter cloacae assessed as percentage nonsusceptible isolates; type: functional

O=C(O)c1cn(C2CC2)c2cc(N3CCNCC3)c(F)cc2c1=O [CIPROFLOXACIN]
Activity (Escherichia coli [1]): 0.25 µg/mL

CCn1cc(C(=O)O)c(=O)c2ccc(C)nc21 [NALIDIXIC ACID]
MIC90 (Enterobacter cloacae [2]): > 256 µg/mL | MIC (Escherichia coli [1]; Escherichia coli, C600): 16 µg/mL (≈ 68.9 µM) | Activity (Enterobacter cloacae [3]): 100% | MIC (Escherichia coli [4]): 16 µg/mL (≈ 68.9 µM)

CC(C)(O/N=C(\C(=O)N[C@@H]1C(=O)N2C(C(=O)[O-])=C(C[n+]3ccccc3)CS[C@H]12)c1csc(N)n1)C(=O)O [CEFTAZIDIME]
Activity (Enterobacter cloacae [5]): 100% | Activity (Enterobacter cloacae [6]): 29.4% | Activity (Enterobacter cloacae [3]): 86%

NCC[C@H](O)C(=O)N[C@@H]1C[C@H](N)[C@@H](O[C@H]2O[C@H](CN)[C@@H](O)[C@H](O)[C@H]2O)[C@H](O)[C@H]1O[C@H]1O[C@H](CO)[C@@H](O)[C@H](N)[C@H]1O [AMIKACIN]
Activity (Enterobacter cloacae [3]): 3.5%

CO/N=C(\C(=O)N[C@@H]1C(=O)N2C(C(=O)O)=C(COC(C)=O)CS[C@H]12)c1csc(N)n1 [CEFOTAXIME]
Activity (Enterobacter cloacae [3]): 97.8%

C[C@@H](O)[C@H]1C(=O)N2C(C(=O)O)=C(SCCNC=N)C[C@H]12 [IMIPENEM ANHYDROUS]
Activity (Enterobacter cloacae [3]): 9.3%

CC(=O)OCC1=C(C(=O)O)N2C(=O)[C@@H](NC(=O)Cc3cccs3)[C@H]2SC1
Activity (Escherichia coli [1]): inactive

CC1(C)S[C@@H]2[C@H](NC(=O)[C@H](N)c3ccccc3)C(=O)N2[C@H]1C(=O)O
Activity (Escherichia coli [1]): inactive

Reference: ChEMBL document CHEMBL1147091, “Prevalence of plasmid-mediated quinolone resistance determinants QnrA, QnrB, and QnrS among clinical isolates of Enterobacter cloacae in a Taiwanese hospital” (2007)
